Here are results for one compound from patent US20080175813A1, “NOVEL ATTRACTANTS FOR VESPID WASPS” (PHEROTECH INTERNATIONAL INC., priority 2007, published 2008).

What all share (assay type): in vivo
Assay [1] relates to Vespula pennsylvanica. Put plainly: Experiment 2: field trapping, apple pomace vs chopped dried apples as supplements for heptyl butyrate. The conditions noted are these: Experiment 2, N = 15, 15-18 Sep. 2006, 12 g supplement in plastic mesh in capture water. How it is done:
The experiment was run for 3 days in Tilbury Industrial Park in Delta, B.C. from 8-11 Sep. 2006. Large 2 L Oak Stump traps, with a single transverse entry tube, and 300-350 mL of water with 2-3 drops of liquid detergent added in the bottom of the interior chamber, were hung at eye level from trees or woody bushes. Traps for each of three treatments were deployed in 12 randomized complete blocks, with ≧5 m between traps. […] Experiment 2, with 15 replicates, was run at the same location as Experiment 1 from 15-18 Sep. 2006. […] The apple pomace was obtained from Agrisource Food Products Inc., Richmond, B.C.

Assay [2] has as its system Vespula pennsylvanica. As to the kind of experiment: Experiment 4: field trapping, apple pomace vs apple juice as supplements for heptyl butyrate. The conditions noted are these: Experiment 4, N = 12, set up 29 Sep. 2006, collections Sept 30, Oct 2, Oct 4; 5 g apple pomace; apple juice replacing capture water.
Source text: A final 12-replicate experiment was set up as above, and compared wet apple pomace with apple juice. The three treatments were: 1) heptyl butyrate alone, 2) heptyl butyrate plus apple juice, and 3) heptyl butyrate plus apple pomace. In the second treatment, apple juice (Sun-Rype Products Ltd., Kelowna, B.C.) with 2-3 drops of detergent added replaced the water-detergent capture medium in the bottom of the interior trap chamber. In the third treatment, the amount of apple pomace in the plastic mesh bag immersed in the water-detergent capture medium in the bottom of the interior chamber was reduced to 5 g, which is a realistic operational dose. The experiment was set up on 29 Sep. 2006, and captured wasps were removed from the traps and counted on September 30, October 2 and October 4.
For assay [3], the system named is Vespula pennsylvanica. As to the kind of experiment: Experiment 1: field trapping in Oak Stump traps, chopped dried apples as supplement for heptyl butyrate. Particulars: Experiment 1, N = 12, Oak Stump traps, 8-11 Sep. 2006, 12 g chopped dried apples in capture water. The procedure: The experiment was run for 3 days in Tilbury Industrial Park in Delta, B.C. from 8-11 Sep. 2006. Large 2 L Oak Stump traps, with a single transverse entry tube, and 300-350 mL of water with 2-3 drops of liquid detergent added in the bottom of the interior chamber, were hung at eye level from trees or woody bushes. Traps for each of three treatments were deployed in 12 randomized complete blocks, with ≧5 m between traps. […] Almost all captured wasps were western yellowjackets, Vespula pennsylvanica. The very few Polistes spp. captured (no more than two per trap, with most traps having none) were not counted.

In assay [4] the test system is Vespula pennsylvanica. Put plainly: Experiment 3: field trapping, wet vs dry apple pomace as supplements for heptyl butyrate. Particulars: Experiment 3, N = 12, 21-22 Sep. 2006, 12 g apple pomace in mesh bag, suspended dry or immersed in capture water.
Procedure: The experiment ran from 21-22 Sep. 2006, at the same location as the first two experiments. All other experimental conditions were the same as above. Twelve replicates of three treatments were tested: 1) heptyl butyrate alone, 2) heptyl butyrate plus a mesh bag containing 12 g of apple pomace suspended dry from the trap lid along with the heptyl butyrate lure, and 3) heptyl butyrate plus 12 g of apple pomace in a mesh bag immersed in the water-detergent capture medium in the bottom of the interior chamber.

On to `CCCCCCCOC(=O)CCC` [Heptyl butyrate alone, heptyl butyrate], for which the “MEAN NUMBER OF WASPS CAPTURED ± SE” value with Vespula pennsylvanica [1] was found to be 15.7 ± 3.4 ab; in the assay on Vespula pennsylvanica [2] it was 24.3 ± 6.7 a; in the assay on Vespula pennsylvanica [3], 72.8 ± 13.9 b; in the assay on Vespula pennsylvanica [3] (listed as heptyl butyrate), 73; in the assay on Vespula pennsylvanica [4], 9.8 ± 2.0 ab.
